Tests used:
Enterococcus sp. = experiment: in vitro antibacterial evaluation, MIC by broth dilution; assay type: cell-based; conditions: broth dilution, 18 hours at 35° C.
In short: (§1)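 Inoculum 5×10^5 CFU/mL; concentrations 64 to 0.06 μg/mL; MIC defined as lowest inhibitory level. Conducted by broth dilution under NCCLS guidelines.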

Staphylococcus sp. = experiment: as above; assay type: cell-based
In short: as §1

[1] = test system: Staphylococcus aureus-SMITH (GC 4543); experiment: acute lethal infection in mice; assay type: in vivo; conditions: acute lethal infection, female CD-1 mice, intraperitoneal challenge, intravenous 30 min. after infection, 7 day survival
Description: Methods for in Vivo Antibacterial Evaluation
The therapeutic effects of glycopeptide antibiotics of Formula I are determined against acute lethal infections with S. aureus (strain Smith), a penicillin resistant strain of S. pneumoniae (strain GC 1894), and a vancomycin resistant strain of E. fecalis (strain GC 6189 and GC 2246). Female mice, CD-1 (Charles River Laboratories), 20+/−2 gm, are challenged by intraperitoneal injection of sufficient bacteria (suspended in /trypticase Soy Broth or hog gastric mucin) to kill non-treated controls within 24-48 hr. Antibacterial agents, contained in 0.2 mL of saline or 5% dextrose solution, are administered intravenously 30 min. after infection. Five mice are treated at each dose level. The 7 day survival ratios from 3 separate tests are pooled for calculation of median effective dose (ED50).

Escherichia coli = experiment: in vitro antibacterial evaluation, MIC by broth dilution; assay type: cell-based; conditions: 18 hours at 35° C.
In short: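 Broth dilution in Muller-Hinton II medium per NCCLS standard M7-A2, with an inoculum of 5×10^5 CFU/mL and antibiotic tested over 64-0.06 μg/mL. MIC was taken as the lowest concentration inhibiting visible growth.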

Streptococcus sp. = experiment: as above; assay type: cell-based; conditions: broth dilution, 18 hours at 35° C.
In short: as §1

[2] = anatomic pathology (histopathology of heart and kidney) in mice; assay type: in vivo; conditions: CD-1 mice, 20 mg/kg intravenously daily for 9 days, necropsy day 10, microscopic histopathology
Description: Samples of tissues from necropsied mice were formalin-fixed, paraffin-embedded, sectioned, stained with hematoxylin and eosin, and examined microscopically. Histopathologic findings were recorded. These findings were subjectively graded on a scale corresponding to slight, mild, moderate, marked and severe as compared to untreated controls.

[3] = Enterococcus faecalis (ATCC 29212)
[4] = Enterococcus faecalis (GC 4552)
[5] = broth dilution, 18 hours at 35° C.
[6] = strain ATCC 29213; broth dilution, 18 hours at 35° C.
[7] = strain GC 1131; broth dilution, 18 hours at 35° C.
[8] = strain GC 4535; broth dilution, 18 hours at 35° C.
[9] = strain GC 4536; broth dilution, 18 hours at 35° C.
[10] = strain GC 4547; broth dilution, 18 hours at 35° C.

CCCCCC(=O)OCC1OC(OC2C(CO)OC(Oc3ccc(CC4NC(=O)C(C(C)c5ccccc5)NC(=O)CNC(=O)C(CO)NC(=O)C(C(O)C5CNC(=N)N5C5OC(CO)C(O)C(O)C5O)NC(=O)C(C(O)C5CNC(=N)N5)NC4=O)cc3)C(O)C2O)C(O)C(O)C1O (stereo not drawn) [Example 95b, Cyclo[glycyl-β-methylphenylalanyl-O-[4-O-(6-O-hexanoylhexopyranosyl)hexopyranosyl]-tyrosyl-3-(2-iminoimidazolidin-4-yl)seryl-3-(3-hexopyranosyl-2-iminoimidazolidin-4-yl)-serylseryl]]
4 mg/kg: median effective dose (ED50), Staphylococcus aureus-SMITH (GC 4543) [1]
8 µg/mL: MIC Enterococcus faecalis (GC 4552) (Enterococcus sp.; [4]) | MIC Enterococcus faecalis (GC 2242) (Enterococcus sp.) | MIC Enterococcus faecalis (GC 4552) (Enterococcus sp.) | MIC Enterococcus faecalis (GC 2242) (Enterococcus sp.; strain GC 2242)
4 µg/mL: MIC Enterococcus faecalis (ATCC 29212) (Enterococcus sp.; [3]) | MIC Enterococcus faecalis (ATCC 29212) (Enterococcus sp.)
64 µg/mL: MIC Escherichia coli (GC 4559) (Escherichia coli)
1 µg/mL: MIC Coagulase Negative Staphylococcus (GC 4538) (Staphylococcus sp.; [5]) | MIC Coagulase Negative Staphylococcus (GC 4547) (Staphylococcus sp.; [5]) | MIC Staphylococcus aureus (ATCC 29213) (Staphylococcus sp.; [6]) | MIC Staphylococcus aureus (GC 1131) (Staphylococcus sp.; [7]) | MIC Staphylococcus aureus-SMITH (GC 4536) (Staphylococcus sp.; [9]) | MIC Coagulase Negative Staphylococcus (GC 4538) (Staphylococcus sp.; strain GC 4538; broth dilution, 18 hours at 35° C.) | MIC Coagulase Negative Staphylococcus (GC 4547) (Staphylococcus sp.; [10])
2 µg/mL: MIC Coagulase Negative Staphylococcus (GC 4537) (Staphylococcus sp.; [5]) | MIC Staphylococcus aureus (GC 4535) (Staphylococcus sp.; [8]) | MIC Coagulase Negative Staphylococcus (GC 4537) (Staphylococcus sp.; strain GC 4537; broth dilution, 18 hours at 35° C.)
<0.5 µg/mL: MIC Escherichia coli (GC 4560) (Escherichia coli)

CCCCCCC(=O)OCC1OC(OC2C(CO)OC(Oc3ccc(CC4NC(=O)C(C(C)c5ccccc5)NC(=O)CNC(=O)C(CO)NC(=O)C(C(O)C5CNC(=N)N5C5OC(CO)C(O)C(O)C5O)NC(=O)C(C(O)C5CNC(=N)N5)NC4=O)cc3)C(O)C2O)C(O)C(O)C1O (stereo not drawn) [Example 97b, Cyclo[glycyl-β-methylphenylalanyl-O-[4-O-(6-O-heptanoylhexopyranosyl)hexopyranosyl]-tyrosyl-3-(2-iminoimidazolidin-4-yl)seryl-3-(3-hexopyranosyl-2-iminoimidazolidin-4-yl)-serylseryl]]
0.5 µg/mL: MIC Staphylococcus aureus-SMITH (GC 4536) (Staphylococcus sp.; [9])
1 µg/mL: MIC Coagulase Negative Staphylococcus (GC 4537) (Staphylococcus sp.; [5]) | MIC Coagulase Negative Staphylococcus (GC 4538) (Staphylococcus sp.; [5]) | MIC Coagulase Negative Staphylococcus (GC 4547) (Staphylococcus sp.; [5]) | MIC Coagulase Negative Staphylococcus (GC 4537) (Staphylococcus sp.; broth dilution, 18 hours at 35° C.; strain GC 4537) | MIC Coagulase Negative Staphylococcus (GC 4538) (Staphylococcus sp.; broth dilution, 18 hours at 35° C.; strain GC 4538) | MIC Coagulase Negative Staphylococcus (GC 4547) (Staphylococcus sp.; broth dilution, 18 hours at 35° C.; strain GC 4547) | MIC Staphylococcus aureus (ATCC 29213) (Staphylococcus sp.; [6]) | MIC Staphylococcus aureus (GC 1131) (Staphylococcus sp.; [7]) | MIC Staphylococcus aureus (GC 4535) (Staphylococcus sp.; [8]) | MIC Escherichia coli (GC 4560) (Escherichia coli)
4 µg/mL: MIC Enterococcus faecalis (ATCC 29212) (Enterococcus sp.; [3]) | MIC Enterococcus faecalis (GC 4552) (Enterococcus sp.; [4]) | MIC Enterococcus faecalis (ATCC 29212) (Enterococcus sp.) | MIC Enterococcus faecalis (GC 4552) (Enterococcus sp.)
32 µg/mL: MIC Escherichia coli (GC 4559) (Escherichia coli)
8 mg/kg: median effective dose (ED50), Staphylococcus aureus-SMITH (GC 4543) [1]
2 µg/mL: MIC Enterococcus faecalis (GC 2242) (Enterococcus sp.; Enterococcus faecalis (GC 2242)) | MIC Enterococcus faecalis (GC 2242) (Enterococcus sp.)

CC(c1ccccc1)C1NC(=O)CNC(=O)C(CO)NC(=O)C(C(O)C2CN(Cc3ccc(C(=O)O)cc3)C(=N)N2C2OC(CO)C(O)C(O)C2O)NC(=O)C(C(O)C2CNC(=N)N2)NC(=O)C(Cc2ccc(OC3OC(CO)C(OC4OC(CO)C(O)C(O)C4O)C(O)C3O)cc2)NC1=O (stereo not drawn) [Example 69, Cyclo[glycyl-β-methylphenylalanyl-O-(4-O-hexopyranosylhexopyranosyl)tyrosyl-3-(2-iminoimidazolidin-4-yl)seryl-3-[1-(4-carboxybenzyl)-2-imino-3-hexopyranosylimidazolidin-4-yl]-serylseryl]]
>128 µg/mL: MIC Enterococcus faecalis (ATCC 29212) (Enterococcus sp.; [3]) | MIC Enterococcus faecalis (GC 4552) (Enterococcus sp.; [4]) | MIC Enterococcus faecalis (GC 4553) (Enterococcus sp.; Enterococcus faecalis (GC 4553)) | MIC Enterococcus faecalis (GC 4554) (Enterococcus sp.; Enterococcus faecalis (GC 4554)) | MIC Enterococcus faecalis (GC 6189) (Enterococcus sp.; Enterococcus faecalis (GC 6189)) | MIC Enterococcus faecium (GC 2243) (Enterococcus sp.; Enterococcus faecium (GC 2243)) | MIC Enterococcus faecium (GC 4556) (Enterococcus sp.; Enterococcus faecium (GC 4556)) | MIC Enterococcus faecalis (ATCC 29212) (Enterococcus sp.) | MIC Enterococcus faecalis (GC 2242) (Enterococcus sp.) | MIC Enterococcus faecalis (GC 2691) (Enterococcus sp.) | MIC Enterococcus faecalis (GC 3059) (Enterococcus sp.) | MIC Enterococcus faecalis (GC 4552) (Enterococcus sp.) | MIC Enterococcus faecalis (GC 4553) (Enterococcus sp.) | MIC Enterococcus faecalis (GC 4554) (Enterococcus sp.) | MIC Enterococcus faecalis (GC 6189) (Enterococcus sp.) | MIC Enterococcus faecium (GC 2243) (Enterococcus sp.) | MIC Enterococcus faecium (GC 4556) (Enterococcus sp.) | MIC Enterococcus faecalis (GC 2242) (Enterococcus sp.; strain GC 2242) | MIC Enterococcus faecalis (GC 2691) (Enterococcus sp.; strain GC 2691) | MIC Enterococcus faecalis (GC 3059) (Enterococcus sp.; strain GC 3059) | MIC Staphylococcus aureus (ATCC 29213) (Staphylococcus sp.; [6]) | MIC Staphylococcus aureus (GC 1131) (Staphylococcus sp.; [7]) | MIC Staphylococcus aureus (GC 3051) (Staphylococcus sp.; strain GC 3051; broth dilution, 18 hours at 35° C.) | MIC Staphylococcus aureus (GC 3053) (Staphylococcus sp.; strain GC 3053; broth dilution, 18 hours at 35° C.) | MIC Staphylococcus aureus (GC 4541) (Staphylococcus sp.; strain GC 4541; broth dilution, 18 hours at 35° C.) | MIC Staphylococcus aureus (GC 4542) (Staphylococcus sp.; strain GC 4542; broth dilution, 18 hours at 35° C.) | MIC Staphylococcus aureus-SMITH (GC 4543) (Staphylococcus sp.; strain GC 4543; broth dilution, 18 hours at 35° C.) | MIC Staphylococcus aureus (GC 4544) (Staphylococcus sp.; strain GC 4544; broth dilution, 18 hours at 35° C.) | MIC Staphylococcus aureus (GC 4545) (Staphylococcus sp.; strain GC 4545; broth dilution, 18 hours at 35° C.) | MIC Staphylococcus haemolyticus (GC 4546) (Staphylococcus sp.; strain GC 4546; broth dilution, 18 hours at 35° C.) | MIC Coagulase Negative Staphylococcus (GC 4547) (Staphylococcus sp.; [10]) | MIC Coagulase Negative Staphylococcus (GC 4548) (Staphylococcus sp.; strain GC 4548; broth dilution, 18 hours at 35° C.) | MIC Coagulase Negative Staphylococcus (GC 4549) (Staphylococcus sp.; strain GC 4549; broth dilution, 18 hours at 35° C.) | MIC Coagulase Negative Staphylococcus (GC 4551) (Staphylococcus sp.; strain GC 4551; broth dilution, 18 hours at 35° C.) | MIC Coagulase Negative Staphylococcus (GC 6257) (Staphylococcus sp.; strain GC 6257; broth dilution, 18 hours at 35° C.) | MIC Streptococcus pyogenes (GC 4563) (Streptococcus sp.) | MIC Streptococcus pyogenes (GC 4563) (Streptococcus sp.; strain GC 4563) | MIC Escherichia coli (ATCC 25922) (Escherichia coli) | MIC Escherichia coli (GC 4559) (Escherichia coli) | MIC Escherichia coli (GC 4560) (Escherichia coli)
128 µg/mL: MIC Enterococcus avium (GC 4558) (Enterococcus sp.; Enterococcus avium (GC 4558)) | MIC Enterococcus faecium (GC 4557) (Enterococcus sp.; Enterococcus faecium (GC 4557)) | MIC Enterococcus avium (GC 4558) (Enterococcus sp.) | MIC Enterococcus faecium (GC 4557) (Enterococcus sp.) | MIC Streptococcus agalactiae (GC 4564) (Streptococcus sp.) | MIC Streptococcus pneumoniae (ATCC 6301) (Streptococcus sp.) | MIC Streptococcus pneumoniae (GC 1894) (Streptococcus sp.) | MIC Streptococcus pneumoniae (GC 4565) (Streptococcus sp.) | MIC Streptococcus pneumoniae (ATCC 6301) (Streptococcus sp.; strain ATCC 6301) | MIC Streptococcus pneumoniae (GC 1894) (Streptococcus sp.; strain GC 1894) | MIC Streptococcus agalactiae (GC 4564) (Streptococcus sp.; strain GC 4564) | MIC Streptococcus pneumoniae (GC 4565) (Streptococcus sp.; strain GC 4565)
0: Anatomical Pathology (Day 10), Heart [2] | Anatomical Pathology (Day 10), Kidney [2]
